Reference: ChEMBL document CHEMBL3797140, “Acridin-3,6-dialkyldithiourea hydrochlorides as new photosensitizers for photodynamic therapy of mouse leukemia cells” (Bioorg Med Chem, 2016)

Experiments:
L1210 = assay: Phototoxicity against mouse L1210 cells assessed as cell viability preincubated for 1 hr followed by 1.05 J/cm2 UV-A irradiation measured after 48 hrs by MTT assay; format: functional, cell-based; details: L1210, light or radiation study
[1] = Dark toxicity against mouse L1210 cells assessed as cell viability after 48 hrs by MTT assay; format: cell-based
[2] = Dark toxicity against mouse NIH/3T3 cells assessed as cell viability after 48 hrs by MTT assay; format: cell-based, NIH3T3
[3] = Phototoxicity against mouse NIH/3T3 cells assessed as cell viability preincubated for 1 hr followed by 1.05 J/cm2 UV-A irradiation measured after 48 hrs by MTT assay; format: cell-based; details: NIH3T3, light or radiation study

**Q.** Which IC50 (L1210) does the source give for `CCNC(=S)Nc1ccc2cc3ccc(NC(=S)NCC)cc3nc2c1` here?
**A.** The IC50 was 0.9 µM.

**Q.** And the IC50 at 48 h [1]?
**A.** Its IC50 at 48 h is 12 µM.

**Q.** What about the IC50 at 48 h [2] of the same molecule?
**A.** The IC50 at 48 h was 40.2 µM.

**Q.** And the IC50 [3]?
**A.** Its IC50 is 2.8 µM.
